Values quoted from earlier work as cited in US20090117076A1, “Methods For Treating Tumor Cells” (priority 2007, published 2009).
Where a name gives a salt, the structure may show the parent alone. Read-outs that look alike come from different tables or passages of the source.

Assays:
[1] = test system: GIST; settings: for Median time to progression, historical value: single agent imatinib
[2] = primates

Row | Compound | Overall response rate of tumor necrosis/apoptosis ([1]; human, in vivo) [%] | Median time to progression, historical value ([1]; subgroup with KIT exon 11 mutation) [days] | Median time to progression, historical value ([1]; subgroup without KIT exon 11 mutation) [days] | Abortifacient effect [2]
1 | Cc1ccc(NC(=O)c2ccc(CN3CCN(C)CC3)cc2)cc1Nc1nccc(-c2cccnc2)n1 [imatinib, imatinib mesylate] | 69 | 687 | 200 | –
2 | interferon α-2b | – | – | – | abortifacient
